This note sets out measurements from patent US6566363B2, “Pyrazole-thiazole compounds, pharmaceutical compositions containing them” (Agouron Pharmaceuticals, Inc., priority 2000, dated 2003).

Counter-ions that a name gives are not always drawn.

The target in one test is T1, CDK4/cyclin D3 (Homo sapiens, UniProt P11802).
T1 construct: made in house; host or cells: insect cells co-infected with baculovirus expression vectors
Put plainly: Inhibition of CDK4/Cyclin D retinoblastoma kinase activity. The settings on record: for Ki: apparent Ki, Rb fragment substrate, 25 μM ATP. The class given is biochemical. Here is the method:
(§1) Cyclin-dependent kinase activity was measured by quantifying the enzyme-catalyzed, time-dependent incorporation of radioactive phosphate from [^32P]ATP or [^33P]ATP into a protein substrate. […] Reactions were initiated with enzyme, incubated at 30° C., and terminated after 20 minutes by the addition of ethylenediaminetetraacetic acid (EDTA) to 250 mM. […] Radioactivity was quantified by exposing the dried membranes to a phosphorimager.
(§2) Apparent Ki values were measured by assaying enzyme activity in the presence of different inhibitor compound concentrations and subtracting the background radioactivity measured in the absence of enzyme.
Phosphorylated Rb substrate was captured by microfiltration on a nitrocellulose membrane and quantified using a phosphorimager as described above. For measurement of tight-binding inhibitors, the enzyme complex concentration was lowered to 5 nM, and the assay duration was extended to 60 minutes, during which the time-dependence of product formation was linear.

A further test addresses T2, CDK2/cyclin A (Homo sapiens, UniProt P24941).
T2 construct: made in house; host or cells: CDK2: insect cells (baculovirus); cyclin A: E. coli, then limited proteolysis
In words: Inhibition of CDK2/Cyclin A retinoblastoma kinase activity. The format is biochemical. As to conditions: for Ki: apparent Ki, Rb fragment substrate, 25 μM ATP. Here is the method:
as §1, §2
A complex of CDK2 and proteolyzed cyclin A was prepared and purified by gel filtration. […] Ki values were measured as described above.

The next test has as its system HCT 116 cell line. Put plainly: Inhibition of cell growth, MTT tetrazolium salt assay. The format is cell-based. The method, then: Inhibition of cell growth was measured using the tetrazolium salt assay, which is based on the ability of viable cells to reduce 3-(4,5-dimethylthiazol-2-yl)-2,5-[2H]-diphenyltetrazolium bromide (MTT) to formazan (Mossman, Journal of Immunological Methods, vol. 65 (1983), pp. 55-58). The water-insoluble purple formazan product was then detected spectrophotometrically. The HCT 116 cell line was grown in 96-well plates. Cells were plated in the appropriate medium at a volume of 135 μl/well in McCoy's 5A Medium. Plates were incubated for four hours before addition of inhibitor compounds. Different concentrations of inhibitor compounds were added in 0.5% (v/v) dimethylsulfoxide (15 μL/well), and cells were incubated at 37° C. (5% CO2) for four to six days (depending on cell type). At the end of the incubation, MTT was added to a final concentration of 0.2 mg/mL, and cells were incubated for 4 hours more at 37° C. After centrifugation of the plates and removal of medium, the absorbence of the formazan (solubilized in dimethylsulfoxide) was measured at 540 nm. The concentration of inhibitor compound causing 50% inhibition of growth was determined from the linear portion of a semi-log plot of inhibitor concentration versus percentage inhibition. All results were compared to control cells treated only with 0.5% (v/v) dimethylsulfoxide.
On the technique in general: Tetrazolium dyes change colour on reduction, which living cells bring about.

T1 sequence (P11802 whole entry): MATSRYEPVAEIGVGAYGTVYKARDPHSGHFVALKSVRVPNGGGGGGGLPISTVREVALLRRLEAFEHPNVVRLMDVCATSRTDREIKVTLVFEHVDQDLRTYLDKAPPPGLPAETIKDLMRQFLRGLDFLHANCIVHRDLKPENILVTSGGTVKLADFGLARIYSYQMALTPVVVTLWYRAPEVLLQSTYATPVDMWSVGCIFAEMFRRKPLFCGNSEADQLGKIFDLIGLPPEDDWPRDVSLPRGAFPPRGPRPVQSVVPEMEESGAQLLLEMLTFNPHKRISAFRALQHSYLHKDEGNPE
T1 sequence (P30281 whole entry partner): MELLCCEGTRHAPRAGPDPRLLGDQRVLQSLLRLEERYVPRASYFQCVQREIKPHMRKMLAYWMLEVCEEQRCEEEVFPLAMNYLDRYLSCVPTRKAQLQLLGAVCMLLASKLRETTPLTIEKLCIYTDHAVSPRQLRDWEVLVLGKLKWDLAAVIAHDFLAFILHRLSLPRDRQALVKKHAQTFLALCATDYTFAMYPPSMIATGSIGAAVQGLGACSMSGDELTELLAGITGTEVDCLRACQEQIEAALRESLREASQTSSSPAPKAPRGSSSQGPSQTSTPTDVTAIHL

In the case of `COc1ccc(Nc2nc3[nH]nc(-c4ccccc4)c3s2)cc1` [Compound 1, 5-(4-Methoxyphenylamino)-3-phenyl-1H-pyrazolo[4,5-d]thiazole Hydrobromic Acid Salt], the Ki on CDK4/cyclin D3 came out at 1600 nM; on CDK2/cyclin A it was 1000 nM.

The IC50 is the concentration that gives 50% inhibition. For the compound `NS(=O)(=O)c1ccc(Nc2nc3[nH]nc(-c4ccccc4)c3s2)cc1` [Compound 2, 3-Phenyl-5-(4-sulfonamidophenylamino)-1H-pyrazolo[4,5-d]thiazole Hydrobromic Acid Salt], the Ki on CDK4/cyclin D3 was 390 nM; at CDK2/cyclin A it was 34 nM. The IC50 with HCT 116 cell line (Homo sapiens, 144 h, HCT 116 cells, MTT, four to six days, read-out: IC50 HCT116) was more than 25000 nM.

Regarding `NS(=O)(=O)c1ccc(Nc2nc3[nH]nc(-c4c(F)cccc4F)c3s2)cc1` [Compound 3, 3-(2,6-Difluorophenyl)-5-(4-sulfonamidophenylamino)-1H-pyrazolo [4,5-d]thiazole], at CDK4/cyclin D3 (@ 1 μm), the “inhibition of CDK4/D3 (entry in Ki column)” value is given as 18% @ 1 μm. Moreover, the “inhibition of HCT116 growth (entry in IC50 column)” value in the test on HCT 116 cell line (@ 25 μm) came to 16% @ 25 μm. On CDK2/cyclin A (@ 1 μm), the “inhibition of CDK2/A (entry in Ki column)” value is listed as 41% @ 1 μm.

With `CN1CCN(c2ccc(Nc3nc4[nH]nc(-c5ccccc5)c4s3)cc2)CC1` [Compound 4, 5-[4-(4-Methyl-piperazin-1-yl)-phenylamino]-3-phenyl-1H-pyrazolo[4,5-d]thiazole Hydrobromic Acid Salt], the Ki at CDK4/cyclin D3 stood at 170 nM; at CDK2/cyclin A it was 1600 nM.
